Reference: patent US7879566B2, “Methods for the identification of modulators of OSGPR114 or OSGPR78 activity, and their use in the treatment of disease” (OSI Pharmaceuticals, Inc., priority 2003, dated 2011)
pEC50: −log10 of the molar value.

Tests used:
OSGPR78 = molecular target: T1, OSGPR78 (Homo sapiens, UniProt P43657, I33V); assay: Yeast Fus1p-LacZ β-galactosidase reporter assay, OSGPR78-transformed yeast; format: cell-based; conditions: yeast transformed with OSGPR78
T1 construct: expressed in transfected cells; host or cells: engineered yeast (GPA1 replaced by G-alpha chimeras, STE3 deleted; Fus1p-LacZ reporters)
T1 sequence (P43657 1-344 I33V): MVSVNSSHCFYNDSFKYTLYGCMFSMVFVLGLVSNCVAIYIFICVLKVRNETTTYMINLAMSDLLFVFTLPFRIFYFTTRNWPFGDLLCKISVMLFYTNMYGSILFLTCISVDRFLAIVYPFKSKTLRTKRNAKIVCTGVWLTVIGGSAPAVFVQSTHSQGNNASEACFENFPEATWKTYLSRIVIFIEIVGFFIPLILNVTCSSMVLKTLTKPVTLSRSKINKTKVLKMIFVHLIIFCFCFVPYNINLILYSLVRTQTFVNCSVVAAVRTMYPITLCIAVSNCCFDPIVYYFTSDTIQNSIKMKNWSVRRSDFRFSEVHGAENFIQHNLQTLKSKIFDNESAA
Excerpt: (§1) The yeast cell-based reporter assays have previously been described in the literature (e.g. see Miret J. J., et. al. (2002) J. Biol. Chem. 277:6881-6887; Campbell R. M., et. al. (1999) Bioorg Med. Chem. Lett. 9:2413-2418; King K., et. al. (1990) Science. 250:121-123); WO 99/14344; WO 00/12704; and U.S. Pat. No. 6,100,042). Briefly, yeast cells have been engineered such that the endogenous yeast G-alpha (GPA1) has been deleted and replaced with G-protein chimeras constructed using multiple techniques. Additionally the endogenous yeast alpha-cell GPCR, STE3 has been deleted to allow for a […] expression of a mammalian GPCR of choice. In the yeast, elements of the pheromone signaling transduction pathway, which are conserved in eukaryotic cells (for example, the mitogen-activated protein kinase pathway), drive the expression of Fus1. By placing β-galactosidase (LacZ) under the control of the Fus1 promoter (Fus1p), a system has been developed whereby receptor activation leads to an enzymatic read-out. Different yeast strains (e.g. FIG. 6) denote the presence of different G-alpha chimeras (see “yeast reporter assays” in Results section below for definitions).
(§2) Yeast cells are transformed by an adaptation of the Lithium acetate method described by Agatep et.al. (Agatep, R., et. al. (1998) Transformation of Saccharomyces cerevisiae by the lithium acetate/single-stranded carrier DNA/polyethylene glycol (LiAc/ss-DNA/PEG) protocol. Technical Tips Online, Trends Journals, Elsevier). Briefly, yeast cells are grown overnight on yeast tryptone plates (YT). Carrier single-stranded DNA (10 μg), 2 μg of each of two Fus1p-LacZ reporter plasmids (one with URA3 selection marker and one with TRP1), 2 μg of OSGPR114 or OSGPR78 in yeast expression vector (2p origin of replication) and a lithium acetate/polyethylene glycol/TE buffer is pipetted into an Epindorf tube. The yeast expression plasmid containing the receptor/no receptor control has a LEU2 marker. Yeast cells are inoculated into this mixture and the reaction proceeds at 30° C. for 60 minutes. The yeast cells are then heat-shocked at 42° C. for 15 minutes. The cells are then washed and spread on selection plates. The selection plates are synthetic defined yeast media minus LEU, URA and TRP (SD-LUT). After incubating at 30° C. for 2-3 days, colonies that grow on the selection plates are then tested in the LacZ assay.
(§3) In order to perform fluorometric enzyme assays for β-galactosidase, yeast cells were grown overnight in liquid SD-LUT media to an unsaturated concentration (i.e. the cells are still dividing and have not yet reached stationary phase). They are diluted in fresh media to an optimal assay concentration and 90 μL of yeast cells were added to 96-well black polystyrene plates (Costar). Compounds, dissolved in ethanol and diluted in a 1% BSA solution to 10× concentration, were added to the plates and the yeast are placed at 30° C. for 4 h. After 4 h, the substrate for the β-galactosidase is added to each well: The substrate may yield a fluorescent or calorimetric read-out upon the activity of the β-galactosidase. In these experiments, Fluorescein di(β-D-galactopyranoside) was used (FDG), a substrate for the enzyme that releases fluorescein, allowing a fluorometric read-out. 20 μL of 500 μM FDG was used. After incubation of the cells with the substrate for 30-60 mins, 20 μL of 1 M sodium carbonate is added to terminate the reaction and enhance the fluorescent signal. The plates were then read in a fluorometer at 485/535 nm. As an alternate read-out system, the yeast are also engineered with a Fus1p-HIS gene which means that activation of the receptor can also be measured through the growth of the yeast in a […] media.

OSGPR114 [1] = molecular target: T2, OSGPR114 (Homo sapiens, UniProt Q9H1C0); assay: Yeast Fus1p-LacZ β-galactosidase reporter assay, OSGPR114-transformed yeast; format: cell-based; conditions: for effect on fluorescence (β-galactosidase reporter): yeast transformed with OSGPR114
T2 construct: expressed in transfected cells; host or cells: engineered yeast (GPA1 replaced by G-alpha chimeras, STE3 deleted; Fus1p-LacZ reporters)
Excerpt: as §1, §2, §3

endogenous CHO receptor = assay: [35S]-GTPγS binding, parental CHO membranes; format: biochemical, hamster; conditions: 1 nM to 300 nM applied
Protocol: For example, in one method employed herein, membranes from untransfected CHO cells as well as OSGPR114 stable clones were prepared using the method described by Griffin et al (1998). Membranes were homogenized in buffer containing 50 mM Tris, 3 mM MgCl2, 100 mM NaCl, 1 mM EDTA, 1 uM GDP, 0.1% fatty acid free BSA, 0.01% Saponin, pH 7.4. Assays were carried out in a reaction mixture containing […], 50 mL of [^35S]-GTPgS binding (final concentration 0.5 nM: 50 mL aliquot counted to determine precise concentration employed) and either 50 mL of assay buffer, 50 mL of unlabeled GTPgS (defining nonspecific binding:final concentration is […]) or 50 mL of each concentration of LPA. Incubations were carried out in triplicate for 60 minutes at 37° C. Reactions were terminated by rapid filtration over GF/B filters presoaked in ice cold wash buffer for 90 minutes. The filters were then washed 6 times with 0.3 mL of ice cold wash buffer (50 mM Tris, 5 mM MgCl2, pH 7.4). The filters were dried, covered with Microscint-20, dark adapted for 5 minutes, and counted on a 2 minute [^35S] protocol on a Packard TopCount LSC.

[2] = system: vector transformed yeast cells; assay: Yeast Fus1p-LacZ reporter assay, vector control (no receptor); format: cell-based; conditions: vector controls, same yeast strains
Excerpt: as §1, §2
as §3, with “Compounds, dissolved in ethanol and diluted in a 1% BSA solution to 10× concentration, were added to the plates and the yeast are placed at 30° C. for 4 h.” left out, “20 μL of 500 μM FDG was used. After incubation of the cells with the substrate for 30-60 mins, 20 μL of 1 M sodium carbonate is added to terminate the reaction and enhance the fluorescent signal.” left out

OSGPR114 [3] = molecular target: T2, OSGPR114; assay: [35S]-GTPγS binding, CHO-OSGPR114 membranes; format: biochemical; conditions: CHO-OSGPR114 versus CHO membranes
Protocol: For example, in one method employed herein, membranes from untransfected CHO cells as well as OSGPR114 stable clones were prepared using the method described by Griffin et al (1998). Membranes were homogenized in buffer containing 50 mM Tris, 3 mM MgCl2, 100 mM NaCl, 1 mM EDTA, 1 uM GDP, 0.1% fatty acid free BSA, 0.01% Saponin, pH 7.4. Assays were carried out in a reaction mixture containing 50 mL of membrane suspension (5 mg/well), 50 mL of [^35S]-GTPgS binding (final concentration 0.5 nM: 50 mL aliquot counted to determine precise concentration employed) and either 50 mL of assay buffer, 50 mL of unlabeled GTPgS (defining nonspecific binding:final concentration is 10 mM) or 50 mL of each concentration of LPA. Incubations were carried out in triplicate for 60 minutes at 37° C. Reactions were terminated by rapid filtration over GF/B filters presoaked in ice cold wash buffer for 90 minutes. The filters were then washed 6 times with 0.3 mL of ice cold wash buffer (50 mM Tris, 5 mM MgCl2, pH 7.4). The filters were dried, covered with Microscint-20, dark adapted for 5 minutes, and counted on a 2 minute [^35S] protocol on a Packard TopCount LSC.

OSGPR114 [4] = molecular target: T2, OSGPR114; assay: FLIPR intracellular calcium assay, CHO-OSGPR114 cells; format: cell-based; conditions: co-addition with LPA
Protocol: For example, in one method employed herein, CHO and CHO-114 cells were seeded at a concentration of 50K cells/well in […] growth media in clear, flat-bottom 96-well black assay plates and incubated overnight at 37 C. The growth media is aspirated from the cells and a dye solution ([…]) added to each well. The dye solution consists of 2 mM probenecid, 2 mM HBSS, […] in a growth media minus antibiotics solution. The cells are loaded with the dye for 1 h at 37 C before aspiration and rinsing with wash buffer (20 mM HBSS+2 mM Probenecid). Compound plates are then prepared with 4× compound/control. 150 ul of wash buffer is added to each well. Once the FLIPR is fully calibrated, compound is added to the plate and the release of calcium measured using 0.4 exposure length and a laser set at 0.3W.

T2 sequence (Q9H1C0 whole entry): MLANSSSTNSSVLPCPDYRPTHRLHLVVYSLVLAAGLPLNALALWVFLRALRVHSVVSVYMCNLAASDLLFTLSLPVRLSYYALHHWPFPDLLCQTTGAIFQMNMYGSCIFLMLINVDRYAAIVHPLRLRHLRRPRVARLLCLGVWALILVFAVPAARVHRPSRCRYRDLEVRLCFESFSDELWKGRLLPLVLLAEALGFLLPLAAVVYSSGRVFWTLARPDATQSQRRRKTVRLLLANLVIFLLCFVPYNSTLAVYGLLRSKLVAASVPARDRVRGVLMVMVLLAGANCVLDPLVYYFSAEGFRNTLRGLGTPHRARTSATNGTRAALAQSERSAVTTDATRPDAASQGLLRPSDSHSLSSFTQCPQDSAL

Molecule: Nc1ncnc2c1ncn2[C@@H]1O[C@H](COP(=O)(O)OP(=O)(O)O)[C@@H](O)[C@H]1O [ADP]
- effect on fluorescence (β-galactosidase reporter) (OSGPR78): no effect
- effect on fluorescence (β-galactosidase reporter) (OSGPR114 [1]): no effect

Molecule: Nc1ncnc2c1ncn2[C@@H]1O[C@H](COP(=O)(O)OP(=O)(O)OP(=O)(O)O)[C@@H](O)[C@H]1O [ATP]
- effect on fluorescence (β-galactosidase reporter) (OSGPR78): no effect
- effect on fluorescence (β-galactosidase reporter) (OSGPR114 [1]): no effect

Molecule: CCCCCCCCC=CCCCCCCCC(=O)OCC(O)COP(=O)(O)O (centres unmarked) [Oleoyl LPA, oleoyl lysophosphatidic acid]
- pEC50 (endogenous CHO receptor): 6.11
- response in vector transformed yeast cells [2]: not in vector transformed cells
- response in vector transformed yeast cells ([2]; listed as oleoyl LPA): did not respond
- effect on fluorescence (β-galactosidase reporter) (OSGPR78): increase in fluorescence
- Emax, GTPγS binding (OSGPR114 [3]): comparable Emax values
- response in yeast G-alpha chimera strains (OSGPR114 [1]; chimeras of Galpha q (20156) and Galphas (20202)): could produce a response
- effect on fluorescence (β-galactosidase reporter) (OSGPR114 [1]): increase in fluorescence

Molecule: CCCCCCCCCCCCCC(=O)OC[C@@H](O)COP(=O)(O)O [myristoyl LPA, myristoyl lysophosphatidic acid]
- response in vector transformed yeast cells [2]: not in vector transformed cells
- effect on fluorescence (β-galactosidase reporter) (OSGPR78): increase in fluorescence
- effect on fluorescence (β-galactosidase reporter) (OSGPR114 [1]): increase in fluorescence

Molecule: CCCCCCCCCCCCCCCC(=O)OC[C@@H](O)COP(=O)(O)O [palmitoyl LPA, palmitoyl lysophosphatidic acid]
- response in vector transformed yeast cells [2]: not in vector transformed cells
- effect on fluorescence (β-galactosidase reporter) (OSGPR78): increase in fluorescence
- effect on fluorescence (β-galactosidase reporter) (OSGPR114 [1]): increase in fluorescence

Molecule: CCCCCCCCCCCCCCCCCC(=O)OC[C@@H](O)COP(=O)(O)O [stearoyl LPA, stearoyl lysophosphatidic acid]
- response in vector transformed yeast cells [2]: not in vector transformed cells
- effect on fluorescence (β-galactosidase reporter) (OSGPR78): increase in fluorescence
- effect on fluorescence (β-galactosidase reporter) (OSGPR114 [1]): increase in fluorescence

Molecule: pertussis toxin
- effect of co-addition on LPA calcium response (OSGPR114 [4]): completely abolished this effect

Molecule: platelet-activating factor [PAF]
- effect on fluorescence (β-galactosidase reporter) (OSGPR78): no effect
- effect on fluorescence (β-galactosidase reporter) (OSGPR114 [1]): no effect
